Earlier results on two compounds are cited in PMC5427923, “A novel CCR2 antagonist inhibits atherogenesis in apoE deficient mice by achieving high receptor occupancy” (Scientific Reports, 2017).

The test system of one data set is hCCR2b. The settings on record: hCCR2; ref Vilums et al. [24]; cited from earlier work.
For another data set, the system named is CCR2. Also on record: method as in PMID 16210643. The settings on record: single oral dose of 50 mg/kg, mice; ref [35]; cited from earlier work.
The subject of another data set is apoE−/− mice. Also on record: method as in Aiello et al. [11]. The following applies: ref Aiello et al. [11], cited from earlier work.

For `CO[C@@H]1COCC[C@@H]1N[C@@H]1CC[C@@](C(=O)N2CCc3ncc(C(F)(F)F)cc3C2)(C(C)C)C1` [MK-0812, reference compound], the RT in the data set with hCCR2b was 92 min.
Consider `CCO[C@H]1CN(C2CCC(O)(c3ccc4c(c3)OCO4)CC2)C[C@@H]1NC(=O)CNC(=O)c1cccc(C(F)(F)F)c1` (mixture of isomers) [INCB3344], for which the CCR2 inhibition entry in the data set on CCR2 is reported as “approximately 75%”. Also, the “size of early and advanced atherosclerotic lesions” value with apoE−/− mice (apoE−/− mice) is on record as “failed to decrease”. Further, the inflammatory monocyte levels result in the data set with apoE−/− mice (up to 6 hours after oral infusion, lost at 9 hours) is reported as “significantly reduced”.
